Consider 6 molecules from patent publication US8435569B2, “Pharmaceutical composition comprising at least one thrombolytic agent (A) and at least one gas (B) selected from the group consisting of nitrous oxide, argon, xenon, helium, neon” (NNOXE Pharmaceutiques Inc., priority 2007, dated 2013).

One data set has as its system t-PA-induced clot lysis. Kind of data set: In vitro t-PA-induced clot lysis of rat blood clots. Format: biochemical. To be noted: for effect on t-PA-induced clot lysis: t-PA 0.008 mg/mL. As to the method:
In vitro experiments (FIG. 2) were performed using Male adult Sprague-Dawley rats (500±50 g). The rats were killed by decapitation. A volume of 500 μL of rat blood was transferred in different pre-weighed sterile Eppenforf™ tubes of 1.5 mL volume and incubated at 37° C. for 15 hours.
After clot formation, serum was completely removed, aspired out without disturbing the clot formed, and each tube was again weighed to determine the clot weight (clot weight=weight of tube containing clot−weight of tube alone). Each tube containing clot was properly labeled and filled with 1 mL of a saline solution containing 0.008 mg/mL of t-PA, saturated beforehand with medical air (control), nitrous oxide, xenon, argon or a mixture of nitrous oxide and argon. Some tubes were filled with saline alone saturated with medical air to serve as a negative control. All tubes were then incubated at 37° C. for 1 h 30 min. After incubation, the fluid obtained was removed and tubes were again weighed to observe the difference in weight after clot disruption. Difference obtained in weight taken before and after clot lysis was expressed as a percentage of clot lysis.
(§1) The effects of oxygen on the catalytic activity and thrombolytic properties of t-PA were also evaluated in vitro and in vivo according to the methods described above.

Data set [1] concerns middle cerebral artery occlusion using an autologous blood clot. The data set can be described thus: In vivo thrombolysis/reperfusion after embolic middle cerebral artery occlusion using an autologous blood clot. Further details: species or system rat. On the procedure: In vivo experiments (FIG. 3) were performed in Male adult Sprague-Dawley rats (290±40 g). The animals had free access to food and water in an animal room at constant temperature and humidity. Rats monitored for their physiological functions were anesthesized, and subjected to cerebral ischemia by occlusion of the middle cerebral artery using an autologus blood clot obtained from whole blood withdrawn from the rat 24 h prior surgery, allowed to clot at 37° C. for 2 h, and then and stored at 4° C. for 22 h.
Embolic occlusion of the middle cerebral artery was induced using an autologous blood clot. Briefly, a blood clot of 4 cm long was injected with a volume of […] of saline into the middle cerebral artery. Forty-five minutes after occlusion of the middle cerebral artery, the rats were given t-PA intravenously (0.9 mg/kg; 10% bolus, 90% perfusion during 45 minutes) in order to induce thrombolysis. Five minutes before the bolus injection and all along the perfusion period with t-PA, the rats were treated with medical air (controls) or xenon. Then, the catheter was removed, and all the incisions closed. After the experiment, the rats were allowed moving freely in their home cage with free access to food and water.
as §1

In another data set the target is human recombinant t-PA (Homo sapiens, UniProt P00750). Kind of data set: Catalytic activity of t-PA (initial rate method, spectrophotometer). It counts as biochemical. As to the method:
All experiments were performed as follows: Fifty (50) μL of human recombinant t-PA was incubated with 50 μL of its substrate: methylsulfonyl-D-phenyl-glycil-arginine-7-amino-4-methylcoumarin acetate. For plasmin, twenty five (25) μL of human recombinant plasmin was incubated with 25 μL of its substrate: H-D-norleucyl-hexahydrotyrosol-lysine-para-nitroanilide diacetate. The kinetics of the catalytic activity of t-PA or plasmin was immediately measured using a spectrophotometer, and then estimated using the initial rate method. Solutions of t-PA or plasmin and their substrates were saturated with air (control), or with nitrous oxide, argon, xenon, or helium at concentrations of 15 vol % to 75 vol %, the remainder being oxygen at 25 vol %, completed with nitrogen when necessary.
For all gas mixtures in FIG. 1, the remainder is 25 vol % oxygen completed with nitrogen if necessary.
as §1

For data set [2], the system named is NMDA-induced neuronal death. The data set can be described thus: NMDA-induced neuronal death after intracerebral injection, with or without t-PA. Format: in vivo, rat. As to the method:
Experiments were conducted in Male adult Sprague-Dawley rats. The rats were given, under short halothane-oxygen anesthesia of 10 min duration, an intracerebral injection of 50 nmol NMDA, alone or in combination with 3 mg t-PA, in […] saline solution.
One hour later, the rats were treated for a 3 h period in an environmental chamber saturated with nitrous oxide at 50 vol % with the remainder being oxygen at 25 vol % completed with nitrogen.
Forty-eight (48) hours after NMDA injection, rats were killed by decapitation under halothane-oxygen anesthesia. The brain was rapidly removed, frozen in isopentane, placed at −80° C. Coronal brain sections (20 μm) were then cryostat-cut, mounted on gelatinized slides, and stained with thionin. Brain sections colored with thionin were then digitized on a PC computer, and analyzed with an image analyzer (ImageJ® software, Scion corp., USA) by two blinded scientists. Values were averaged; value differences were no more than 10% (mean: 0.5±1%). The lesion areas were delineated by the pallor of histological staining in the necrotic tissue compared with the surrounding healthy tissue. The infarction volume was calculated by integration over the whole brain of the infarcted surfaces, using the sterotaxic atlas for the rat brain of Paxinos and Watson (Academic Press, 1998).

Where [3] appears, read: solutions saturated with gas at 15 vol % to 75 vol %, remainder 25 vol % oxygen completed with nitrogen, vs air control.
[4] abbreviates: gas at 50 vol %, 37° C., 1 h 30 min.

human recombinant t-PA, sequence (P00750 36-562): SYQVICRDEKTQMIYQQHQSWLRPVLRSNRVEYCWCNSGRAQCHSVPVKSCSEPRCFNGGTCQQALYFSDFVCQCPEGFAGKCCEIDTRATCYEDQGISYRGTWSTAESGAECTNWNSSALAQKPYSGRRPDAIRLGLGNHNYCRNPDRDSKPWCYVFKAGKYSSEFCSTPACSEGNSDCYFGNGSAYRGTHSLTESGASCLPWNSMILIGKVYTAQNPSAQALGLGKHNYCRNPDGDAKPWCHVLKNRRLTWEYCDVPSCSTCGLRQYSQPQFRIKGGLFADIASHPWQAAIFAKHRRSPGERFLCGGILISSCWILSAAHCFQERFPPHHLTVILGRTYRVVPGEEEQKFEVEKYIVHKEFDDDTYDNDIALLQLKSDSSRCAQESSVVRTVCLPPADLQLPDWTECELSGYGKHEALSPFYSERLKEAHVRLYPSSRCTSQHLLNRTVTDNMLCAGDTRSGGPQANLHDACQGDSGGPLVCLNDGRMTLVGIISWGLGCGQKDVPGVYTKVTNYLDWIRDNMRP

For the molecule `O=O` [Oxygen, oxygen], the “effect on in vitro thrombolytic action of t-PA” value in the data set on t-PA-induced clot lysis (oxygen at 100 vol %) is listed as “facilitates”. For the same molecule, in data set [1] (oxygen at 100 vol %), the “effect on in vivo thrombolytic action of t-PA” value was “facilitates”. Moreover, the “effect on the catalytic activity of t-PA” value at human recombinant t-PA (oxygen at 100 vol %) is reported as “increases”.
As for `[Ar]` [argon], the “effect on t-PA-induced clot lysis” value in the data set with t-PA-induced clot lysis (gas at 30 vol %, 37° C., 1 h 30 min) is “reduce”. Further, the “effect on the catalytic activity of t-PA” value on human recombinant t-PA (setting [3]) is “reduced”.
`[He]` [helium]: the “effect on t-PA-induced clot lysis” value in the data set on t-PA-induced clot lysis (gas at 75 vol %, 37° C., 1 h 30 min) is “reduce”. The “effect on the catalytic activity of t-PA” value at human recombinant t-PA (setting [3]) is recorded as “reduced”.
For the molecule `[N-]=[N+]=O` [nitrous oxide], in the data set with t-PA-induced clot lysis (setting [4]), the “effect on t-PA-induced clot lysis” value is given as “reduce”. Further, in data set [2] (nitrous oxide 50 vol % for 3 h, 1 h after 50 nmol NMDA + t-PA intracerebral, infarction volume at 48 h), the “reduction of neuronal death induced by co-administration of t-PA and NMDA” value stood at 45%. Moreover, the “reduction of neuronal death produced by NMDA” value in data set [2] (nitrous oxide 50 vol % for 3 h, 1 h after 50 nmol NMDA intracerebral, infarction volume at 48 h) is listed as 22%. In addition, the “reduction of the proteolytic action of t-PA responsible for the enhancement of neuronal death” value in data set [2] (nitrous oxide 50 vol %, difference 45%−22%) is listed as “approximately 23%”. For the same molecule, the “effect on the catalytic activity of t-PA” value at human recombinant t-PA (setting [3]) is recorded as “reduced”.
`[Xe]` [xenon]: the “effect on t-PA-induced clot lysis” value with t-PA-induced clot lysis (setting [4]) is recorded as “reduce”. The “reperfusion rate versus control rats treated with t-PA and medical air” value in data set [1] (xenon at 75 vol % from 5 min before bolus and during t-PA perfusion (0.9 mg/kg i.v.)) is “lower reperfusion rate”. The “effect on the catalytic activity of t-PA” value at human recombinant t-PA (setting [3]) is “reduced”.
With “t-PA: human recombinant tissue-type plasminogen activator, a thrombolytic serine protease”, the “percentage of clot lysis” value in the data set on t-PA-induced clot lysis (t-PA 0.008 mg/mL in saline saturated with medical air (control), 37° C., 1 h 30 min) is “around 23%”. For the same molecule, in data set [2] (t-PA co-administered with 50 nmol NMDA intracerebrally), the “effect on NMDA-induced neuronal death” value was “increases”. Further, the reperfusion entry in data set [1] (t-PA 0.9 mg/kg intravenously 45 min after occlusion, vs rats not treated with t-PA) was “exhibit reperfusion”.
